The record followed here is BindingDB's records for patent US20250304563 (Orum Therapeutics, 2025).

This test concerns the target T1, Isoform Truncated 1 of E3 ubiquitin-protein ligase CBL-B [36-427] (Homo sapiens, UniProt Q13191).
T1 construct: 36-427
Kind of test: Binding Affinity of Example 1 Compounds to Cbl-b Protein. The protocol: Compounds were assessed for binding activity to Cbl-b by their ability to compete with and displace a probe comprised of BODIPY-FL fluorophore conjugated to a Cbl-b inhibitor (see Example 54 in WO2020264398). In the assay, a 36-427 aa truncated form of Cbl-b with an N-terminus Avi-tag was incubated 20 mM HEPES pH 7.5, 150 mM NaCl, 0.01% Triton X-100, 0.1% BSA, 0.5 mM TCEP buffer with streptavidin-terbium (Cisbio). After one hour of incubation at room temperature, 1 uM each of fluorescent probe and compound were combined with the reaction mixture. Compounds with Cbl-b binding activity competitively displace the fluorophore tagged inhibitor thereby disrupting the FRET signal from the terbium-BODIPY-FL complex. The reaction mixtures were incubated for one additional hour at room temperature to allow for competition between inhibitor and candidate compounds to occur. The time resolved FRET (TR-FRET) signal was then read at 520/620 […] ([…]) using a Spectramax M5e plate reader (Molecular Devices) to measure probe displacement. Compounds with Cbl-b binding activity had decreased FRET signal owing to disruption of the terbium-BODIPY-FL FRET complex. Standard methods in PRISM were used to calculate the compound IC50 values from the experimental data.

Molecules are shown by their SMILES.

Usually IC50 stands for the concentration that inhibits the measured activity by half. Low readings indicate inhibition by little substance, high ones a need for much substance.

For the molecule `CCSc1cc(C2(Cc3nncn3C)COC2)cc(N2CC3C(C(N)=O)=CC(CN4CCC[C@H](C)C4)=CC3C2=O)n1` (stereo partly specified) [US20250304563, Compound 145], the IC50 entry was “in the range around 12.5 nM”.
